Test systems include 786-0; BT-549; HCT-116; HOP-62; HT-29; IGROV-1; KM12; NCI-H226; NCI-H522; OVCAR-5; OVCAR-8; RPMI-8226; SF-295; SK-MEL-2; SK-MEL-5; SK-OV-3; SNB-19; U-251.
Common to all, as to assay: DTP human tumour cell line panel, 48 h

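Briefly, cells in 96-well plates were exposed to five compound concentrations for 48 h, and endpoints were estimated by linear interpolation. At the GI50, growth is halved.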 Calls of active or inactive are those of the source. Rule as the data show it: active = GI50 up to about 1.1 µM and inactive = higher.

Experimental findings from ChEMBL document CHEMBL1201862, “PubChem BioAssay data set” (2004) are described below.

What is called GI50 is the concentration at which growth is held to half of that of the control. Consider `O=C(O)c1ccc(Cc2ccccc2C(=O)O)cc1`, for which the GI50 in the experiment with 786-0, with BT-549, in the experiment with HCT-116, in the experiment with HOP-62, with HT-29 and in the experiment on IGROV-1 was > 100 µM (inactive) throughout. Further, the GI50 in the experiment with KM12, in the experiment with NCI-H226, with NCI-H522, in the experiment on OVCAR-5, with OVCAR-8 and in the experiment with RPMI-8226 was > 100 µM (inactive) in each case. Further, the GI50 in the experiment on SF-295, in the experiment on SK-MEL-2, with SK-MEL-5, with SK-OV-3, in the experiment on SNB-19 and in the experiment with U-251 was > 100 µM (inactive) each time.

For `Cn1c(=O)cc(Nc2ccc(N)cc2)[nH]c1=O`, the GI50 in the experiment with 786-0, in the experiment on BT-549, in the experiment with HCT-116, in the experiment on HOP-62, in the experiment on HT-29 and in the experiment on IGROV-1 was > 100 µM (inactive) throughout. The GI50 in the experiment on KM12, with NCI-H226, in the experiment with NCI-H522, in the experiment on OVCAR-5, in the experiment with OVCAR-8 and in the experiment with RPMI-8226 was > 100 µM (inactive) in each case. In addition, the GI50 with SF-295, in the experiment on SK-MEL-2, with SK-MEL-5, with SK-OV-3, in the experiment on SNB-19 and in the experiment with U-251 was > 100 µM (inactive) throughout.

Turning to `COc1ccccc1Cc1ccc(C2C=CC3(CC(=O)C=C3C)C(=O)C2)o1` (centres undefined), the GI50 was 20.2 µM (inactive) with 786-0; 20.6 µM (inactive) with BT-549; 27.2 µM (inactive) with HCT-116; 15 µM (inactive) in the experiment with HOP-62; 35.3 µM (inactive) in the experiment with HT-29; 29.2 µM (inactive) with IGROV-1. Besides, the GI50 was 29 µM (inactive) with KM12; 25.6 µM (inactive) with NCI-H226; 16 µM (inactive) in the experiment with NCI-H522; 50.8 µM (inactive) in the experiment on OVCAR-5; 17.1 µM (inactive) in the experiment on OVCAR-8; 17.4 µM (inactive) in the experiment with RPMI-8226. The GI50 is 22.1 µM (inactive) in the experiment on SF-295; 14.7 µM (inactive) with SK-MEL-2; 15.6 µM (inactive) in the experiment on SK-MEL-5; 47.2 µM (inactive) in the experiment with SNB-19; 16.3 µM (inactive) with U-251.

For the molecule `O=[N+]([O-])c1cc(C(F)(F)F)ccc1S(=O)(=O)N[C@@H]1CCCC[C@H]1NS(=O)(=O)c1ccc(C(F)(F)F)cc1[N+](=O)[O-]`, the GI50 is 3.47 µM (inactive) in the experiment with 786-0; 2.23 µM (inactive) with BT-549; 3.43 µM (inactive) in the experiment on HCT-116; 7.1 µM (inactive) with HOP-62; 3.37 µM (inactive) in the experiment with HT-29; 2.31 µM (inactive) in the experiment on IGROV-1. Moreover, the GI50 in the experiment on KM12 is 3.08 µM (inactive); in the experiment on NCI-H226 it was 7.52 µM (inactive); in the experiment on NCI-H522, 2.45 µM (inactive); in the experiment with OVCAR-5 it was 56.2 µM (inactive); in the experiment with OVCAR-8, 2.86 µM (inactive); in the experiment on SF-295 it was 2.86 µM (inactive). Also, the GI50 was 2.82 µM (inactive) in the experiment on SK-MEL-2; 3.58 µM (inactive) with SK-MEL-5; 13.6 µM (inactive) with SK-OV-3; 5.68 µM (inactive) in the experiment on SNB-19; 3.37 µM (inactive) in the experiment on U-251.

As for `CCOC(=O)c1nc2cc(C(F)(F)F)ccc2nc1Nc1ccc(Cl)c(Cl)c1`, the GI50 is > 100 µM (inactive) in the experiment on 786-0; 86.3 µM (inactive) in the experiment with BT-549; 69.7 µM (inactive) with HCT-116; 76.6 µM (inactive) in the experiment with HOP-62; 66.8 µM (inactive) in the experiment with HT-29; > 100 µM (inactive) in the experiment on IGROV-1. In addition, the GI50 with KM12 is 65 µM (inactive); with NCI-H226, > 100 µM (inactive); with NCI-H522, > 100 µM (inactive); with OVCAR-5, > 100 µM (inactive); in the experiment on OVCAR-8 it was > 100 µM (inactive); with RPMI-8226, 33.4 µM (inactive). For the same molecule, the GI50 was 74.6 µM (inactive) with SF-295; > 100 µM (inactive) with SK-MEL-2; > 100 µM (inactive) in the experiment on SK-MEL-5; 97.9 µM (inactive) with SK-OV-3; > 100 µM (inactive) in the experiment with SNB-19; 53.6 µM (inactive) in the experiment on U-251.

As for `CCOC(=O)c1ccc(C(=O)/C(C(C)=O)=C2\CCCN2C)n1C`, the GI50 in the experiment with 786-0 was > 100 µM (inactive); with BT-549 it was > 100 µM (inactive); with HCT-116 it was 30.6 µM (inactive); with HOP-62, 57.9 µM (inactive); in the experiment on IGROV-1, > 100 µM (inactive); with KM12, 29.1 µM (inactive). For the same molecule, the GI50 in the experiment with NCI-H226 was > 100 µM (inactive); in the experiment with NCI-H522, 57.5 µM (inactive); in the experiment with OVCAR-5, > 100 µM (inactive); in the experiment with OVCAR-8, > 100 µM (inactive); in the experiment on RPMI-8226, 61.2 µM (inactive); with SF-295, 56.9 µM (inactive). Moreover, the GI50 is > 100 µM (inactive) with SK-MEL-2; 42.9 µM (inactive) with SK-MEL-5; 30.7 µM (inactive) with SK-OV-3; 73.3 µM (inactive) in the experiment with SNB-19; 86.5 µM (inactive) with U-251.

`Cn1c(-c2ccc[se]2)ccc1-c1ccc(CO)[se]1`: the GI50 with 786-0 is 25.6 µM (inactive); with BT-549, 27.7 µM (inactive); in the experiment on HCT-116, 0.826 µM (active); with IGROV-1 it was < 0.01 µM (active); with KM12, 32.1 µM (inactive); with NCI-H226 it was 0.302 µM (active). The GI50 is 27.9 µM (inactive) with NCI-H522; < 0.0209 µM (active) in the experiment on OVCAR-5; 33.1 µM (inactive) in the experiment with OVCAR-8; 1.28 µM (inactive) with RPMI-8226; 31.3 µM (inactive) in the experiment with SF-295; 34.7 µM (inactive) with SK-MEL-2. For the same molecule, the GI50 in the experiment on SK-MEL-5 was 24.9 µM (inactive); with SK-OV-3, 17.1 µM (inactive); in the experiment with SNB-19 it was > 46.5 µM (inactive); in the experiment on U-251, < 0.0129 µM (active).

Turning to `CC1(C)[C@@H]2CC[C@]1(C)[C@H](OC(=O)/C=C/c1ccccc1)C2`, the GI50 in the experiment on 786-0 is 18.1 µM (inactive); with BT-549 it was 21.9 µM (inactive); in the experiment on HCT-116, 18.4 µM (inactive); in the experiment on HOP-62 it was 30.2 µM (inactive); in the experiment on HT-29, 16.6 µM (inactive); in the experiment with IGROV-1 it was 27.7 µM (inactive). For the same molecule, the GI50 in the experiment on KM12 was 20.8 µM (inactive); with NCI-H226 it was 20.8 µM (inactive); in the experiment on NCI-H522, 14.6 µM (inactive); in the experiment on OVCAR-5, 19.6 µM (inactive); in the experiment on OVCAR-8 it was 20.8 µM (inactive); with SF-295, 18 µM (inactive). The GI50 is 17.4 µM (inactive) in the experiment on SK-MEL-2; 16.7 µM (inactive) in the experiment with SK-MEL-5; 34.9 µM (inactive) in the experiment with SK-OV-3; 19.8 µM (inactive) in the experiment with SNB-19; 17.7 µM (inactive) in the experiment on U-251.

Consider `COC(=O)C/N=C1\NC(=S)N(Cc2ccc(OC)cc2)C12CCCC2`, for which the GI50 with 786-0, in the experiment on BT-549, with HCT-116, with HOP-62, in the experiment on HT-29 and with KM12 was > 100 µM (inactive) each time. Also, the GI50 in the experiment on NCI-H226, in the experiment on NCI-H522, with OVCAR-5, in the experiment on OVCAR-8, in the experiment on RPMI-8226 and in the experiment with SF-295 was > 100 µM (inactive) throughout. Also, the GI50 in the experiment on SK-MEL-2, in the experiment on SK-OV-3, in the experiment with SNB-19 and in the experiment with U-251 was > 100 µM (inactive) throughout.

For `O=C(/C=C/C=C/c1ccccc1)CCc1ccccc1`, the GI50 in the experiment with 786-0 is > 100 µM (inactive); in the experiment with BT-549 it was > 100 µM (inactive); with HCT-116 it was 40.7 µM (inactive); in the experiment on HOP-62, > 100 µM (inactive); in the experiment with HT-29 it was 69.7 µM (inactive); in the experiment on IGROV-1, > 100 µM (inactive). Besides, the GI50 was 22.1 µM (inactive) with KM12; > 100 µM (inactive) in the experiment with NCI-H226; 50.2 µM (inactive) with NCI-H522; > 100 µM (inactive) in the experiment with OVCAR-5; 73.8 µM (inactive) in the experiment on OVCAR-8; > 10 µM (inactive) in the experiment on RPMI-8226. The GI50 was > 100 µM (inactive) with SF-295; > 100 µM (inactive) in the experiment on SK-MEL-2; > 100 µM (inactive) with SK-MEL-5; > 100 µM (inactive) in the experiment with SK-OV-3; 62.1 µM (inactive) in the experiment on SNB-19; 61 µM (inactive) in the experiment on U-251.

Consider `C#CCOC(=O)c1ccccc1OC(C)=O`, for which the GI50 in the experiment with 786-0, in the experiment on BT-549, in the experiment with HCT-116, in the experiment with HOP-62, in the experiment on IGROV-1 and with KM12 was > 100 µM (inactive) in each case. Moreover, the GI50 in the experiment with NCI-H226, in the experiment with NCI-H522, with OVCAR-5, with OVCAR-8, in the experiment on RPMI-8226 and in the experiment with SF-295 was > 100 µM (inactive) throughout. The GI50 in the experiment with SK-MEL-2, with SK-MEL-5, in the experiment with SK-OV-3, with SNB-19 and with U-251 was > 100 µM (inactive) throughout.
